{"source": "ChEMBL document CHEMBL1201862", "about": "“PubChem BioAssay data set” (2004)", "key": {"[1]": {"molecular_target": "Benomyl/methotrexate resistance protein (Candida albicans, UniProt P28873)", "sequence (P28873 whole entry)": "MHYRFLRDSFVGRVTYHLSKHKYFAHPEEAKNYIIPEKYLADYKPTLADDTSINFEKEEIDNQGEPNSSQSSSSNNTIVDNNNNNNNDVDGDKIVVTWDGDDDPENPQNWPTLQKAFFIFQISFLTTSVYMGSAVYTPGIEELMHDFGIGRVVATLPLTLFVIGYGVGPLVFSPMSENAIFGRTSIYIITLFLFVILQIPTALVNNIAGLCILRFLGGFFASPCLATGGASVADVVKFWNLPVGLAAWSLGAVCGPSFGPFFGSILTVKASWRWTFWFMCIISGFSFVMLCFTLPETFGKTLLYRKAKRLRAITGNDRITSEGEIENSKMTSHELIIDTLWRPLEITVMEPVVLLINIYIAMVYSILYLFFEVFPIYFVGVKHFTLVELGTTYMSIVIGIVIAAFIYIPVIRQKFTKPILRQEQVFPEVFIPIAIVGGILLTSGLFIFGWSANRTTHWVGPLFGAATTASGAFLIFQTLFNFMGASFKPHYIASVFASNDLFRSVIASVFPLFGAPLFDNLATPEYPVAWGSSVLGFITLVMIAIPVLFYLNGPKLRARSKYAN", "experiment": "Candida albicans Mdr1 pump inhibition curves – singleplex, Cherry Pick1 hits, dose response (AID 588608)", "type": "functional"}, "[2]": {"molecular_target": "Multidrug resistance protein CDR1 (Candida albicans, UniProt P43071)", "experiment": "inhibition of Nile Red efflux via Candida CDR1 – S. cerevisiae AD1-8u, singleplex, Cherry Pick1 hits, dose response (AID 588606)", "type": "functional"}, "[3]": {"molecular_target": "Protein disulfide-isomerase (Homo sapiens, UniProt P07237)", "sequence (P07237 whole entry)": "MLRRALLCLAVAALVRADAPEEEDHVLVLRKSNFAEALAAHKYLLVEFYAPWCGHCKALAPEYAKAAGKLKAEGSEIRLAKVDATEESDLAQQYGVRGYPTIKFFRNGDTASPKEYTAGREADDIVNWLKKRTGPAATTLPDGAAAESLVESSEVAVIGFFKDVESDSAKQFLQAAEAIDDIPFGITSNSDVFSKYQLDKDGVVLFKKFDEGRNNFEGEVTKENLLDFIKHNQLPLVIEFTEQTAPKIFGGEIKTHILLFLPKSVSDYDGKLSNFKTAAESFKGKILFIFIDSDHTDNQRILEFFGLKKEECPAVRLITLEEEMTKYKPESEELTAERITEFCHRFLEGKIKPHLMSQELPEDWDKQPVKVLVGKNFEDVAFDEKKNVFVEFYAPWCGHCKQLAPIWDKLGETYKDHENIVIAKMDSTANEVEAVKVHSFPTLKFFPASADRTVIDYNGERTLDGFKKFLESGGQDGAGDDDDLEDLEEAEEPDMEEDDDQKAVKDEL", "experiment": "inhibition of PDI-driven insulin aggregation – biochemical, turbidity, absorbance, cherry-picked samples, dose response (AID 602350)", "type": "functional"}, "[4]": {"tested_on": "BJ", "experiment": "growth inhibition of engineered Ras-driven BJ cells – cell-based, alamar blue fluorescence, cherrypicked samples, dose response (AID 2631)", "type": "functional", "details": "Homo sapiens"}, "[5]": {"experiment": "Luminescence Cell-Based Dose Response HTS to Identify Inhibitors of Luciferase Translation or Activity in H4-C Neuroglioblastoma Cells. [Related pubchem assays: 1813 (Primary HTS), 1827 (Project Summary)]", "type": "functional"}, "[6]": {"tested_on": "BJ", "experiment": "cells", "type": "functional, cell-based", "details": "Homo sapiens"}, "[7]": {"experiment": "DRD fibroblast viability loss – cell-based, non-viral oncogenic, luminescence, dose response (AID 1934)", "type": "functional", "details": "Homo sapiens"}, "[8]": {"experiment": "alpha-synuclein stem-loop translation blockers – luminescence, H4 neuroglioblastoma cells, dose confirmation, confirmation (AID 2454);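 also: potency for inhibition of the luciferase signal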", "type": "functional, cell-based"}, "[9]": {"experiment": "alpha-synuclein stem-loop luciferase translation blockers – H4 neuroglioma cells, luminescence, confirmation (AID 1988)", "type": "functional, cell-based"}, "[10]": {"experiment": "Luminescence Cell-Based Dose Response HTS to Identify Inhibitors of 5'UTR Stem-Loop Driven Prion Protein mRNA Translation in H4 Neuroglioblastoma Cells. [Related pubchem assays: 1827 (Project Summary), 1813 (Primary HTS)]", "type": "functional"}, "[11]": {"experiment": "Luminescence Cell-Based Dose Response HTS to Identify Activators of 5'UTR Stem-Loop Driven Prion Protein mRNA Translation in H4-C Neuroglioblastoma Cells. [Related pubchem assays: 1829 (Project Summary), 1814 (Primary HTS)]", "type": "functional"}, "[12]": {"experiment": "Luminescence Cell-Based Dose HTS Response to Identify Inhibitors of 5'UTR Stem-Loop Driven Prion Protein mRNA Translation in H4-C Neuroglioblastoma Cells. [Related pubchem assays (depositor defined):AID1814, AID1827]", "type": "functional"}, "[13]": {"tested_on": "BJ", "experiment": "BJ-TERT-LT-ST fibroblast viability loss – cell-based, RAS-independent, luminescence, dose response (AID 1935);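 also: BJ fibroblasts immortalized with TERT plus LT and ST oncogenes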", "type": "functional", "details": "Homo sapiens"}, "[14]": {"experiment": "luciferase reporter signal suppression in cells – H4 neuroglioma cells, luminescence, dose response (AID 1990)", "type": "functional, cell-based"}, "[15]": {"experiment": "Luminescence Cell-Based Dose Confirmation HTS to Identify Inhibitors of 5'UTR Stem-Loop Driven Alpha-Synuclein mRNA Translation in H4 Neuroglioblastoma Cells. [Related pubchem assays: 1827 (Project Summary), 1813 (Primary HTS)]", "type": "functional"}, "[16]": {"experiment": "cells", "type": "functional, cell-based"}, "[17]": {"experiment": "Luminescence Cell-Based Dose Response HTS to Identify Activators of Luciferase Translation or Activity in H4-C Neuroglioblastoma Cells. [Related pubchem assays: 1829 (Project Summary), 1814 (Primary HTS)]", "type": "functional"}, "[18]": {"experiment": "luciferase reporter signal reduction – luminescence, H4-C neuroglioblastoma cells, dose response (AID 2458);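 also: H4 neuroglioblastoma cells stably carrying a luciferase reporter gene fusion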", "type": "functional, cell-based"}, "[19]": {"tested_on": "BJ", "experiment": "BJ-TERT fibroblast viability loss – cell-based, RAS-independent, luminescence, dose response (AID 1933)", "type": "functional", "details": "Homo sapiens"}, "[20]": {"molecular_target": "T1, Insulin-degrading enzyme (Homo sapiens, UniProt P14735)", "T1 sequence (P14735 whole entry)": "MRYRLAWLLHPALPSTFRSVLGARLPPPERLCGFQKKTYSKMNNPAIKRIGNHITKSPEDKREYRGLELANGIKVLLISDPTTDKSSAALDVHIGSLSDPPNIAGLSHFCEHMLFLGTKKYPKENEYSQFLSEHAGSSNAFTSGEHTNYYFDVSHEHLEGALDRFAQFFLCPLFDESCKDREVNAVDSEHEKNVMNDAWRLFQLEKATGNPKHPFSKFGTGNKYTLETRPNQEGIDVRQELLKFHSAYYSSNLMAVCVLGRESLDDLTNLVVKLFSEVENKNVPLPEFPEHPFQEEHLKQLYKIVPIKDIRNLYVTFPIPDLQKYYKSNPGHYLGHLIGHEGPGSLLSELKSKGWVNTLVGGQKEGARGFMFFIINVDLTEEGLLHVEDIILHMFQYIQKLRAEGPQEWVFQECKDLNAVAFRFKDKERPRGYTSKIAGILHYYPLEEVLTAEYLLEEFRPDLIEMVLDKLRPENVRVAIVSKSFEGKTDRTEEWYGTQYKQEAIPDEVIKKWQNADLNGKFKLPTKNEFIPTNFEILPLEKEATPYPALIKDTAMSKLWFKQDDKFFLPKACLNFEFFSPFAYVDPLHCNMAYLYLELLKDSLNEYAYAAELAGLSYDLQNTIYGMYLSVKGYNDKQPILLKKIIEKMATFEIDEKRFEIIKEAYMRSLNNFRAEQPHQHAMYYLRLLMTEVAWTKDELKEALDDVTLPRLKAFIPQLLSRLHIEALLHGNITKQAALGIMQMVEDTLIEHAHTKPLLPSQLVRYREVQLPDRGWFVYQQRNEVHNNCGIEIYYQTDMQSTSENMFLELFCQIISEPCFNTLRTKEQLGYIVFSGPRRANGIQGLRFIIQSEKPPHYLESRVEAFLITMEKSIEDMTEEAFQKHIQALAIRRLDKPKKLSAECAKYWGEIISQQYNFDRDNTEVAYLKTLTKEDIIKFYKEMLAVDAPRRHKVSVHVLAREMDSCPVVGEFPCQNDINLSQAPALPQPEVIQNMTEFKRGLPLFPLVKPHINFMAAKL", "experiment": "recombinant IDE activation, cell-free – biochemical, fluorescence polarization, counter-screen for IDE activator project, dose response (AID 588681)"}, "[21]": {"tested_on": "HEK293", "experiment": "membrane integrity loss in HEK cells – cell-based, fluorescence, cytotoxicity control for IDE activator project, dose response (AID 588440);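 also: cytotoxicity by LDH release measuring loss of membrane integrity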", "type": "functional", "details": "Homo sapiens"}, "[22]": {"molecular_target": "Beta-lactamase (Salmonella choleraesuis (strain SC-B67), UniProt Q5J463)"}, "[23]": {"tested_on": "HEK293", "experiment": "optical interference in Abeta FP readout, dose response, artefact control for IDE activator project, biochemical, fluorescence polarization (AID 588442)", "type": "functional, cell-based", "details": "Homo sapiens"}, "[24]": {"molecular_target": "ORF 73 (Human herpesvirus 8, UniProt O40947)", "sequence (O40947 whole entry)": "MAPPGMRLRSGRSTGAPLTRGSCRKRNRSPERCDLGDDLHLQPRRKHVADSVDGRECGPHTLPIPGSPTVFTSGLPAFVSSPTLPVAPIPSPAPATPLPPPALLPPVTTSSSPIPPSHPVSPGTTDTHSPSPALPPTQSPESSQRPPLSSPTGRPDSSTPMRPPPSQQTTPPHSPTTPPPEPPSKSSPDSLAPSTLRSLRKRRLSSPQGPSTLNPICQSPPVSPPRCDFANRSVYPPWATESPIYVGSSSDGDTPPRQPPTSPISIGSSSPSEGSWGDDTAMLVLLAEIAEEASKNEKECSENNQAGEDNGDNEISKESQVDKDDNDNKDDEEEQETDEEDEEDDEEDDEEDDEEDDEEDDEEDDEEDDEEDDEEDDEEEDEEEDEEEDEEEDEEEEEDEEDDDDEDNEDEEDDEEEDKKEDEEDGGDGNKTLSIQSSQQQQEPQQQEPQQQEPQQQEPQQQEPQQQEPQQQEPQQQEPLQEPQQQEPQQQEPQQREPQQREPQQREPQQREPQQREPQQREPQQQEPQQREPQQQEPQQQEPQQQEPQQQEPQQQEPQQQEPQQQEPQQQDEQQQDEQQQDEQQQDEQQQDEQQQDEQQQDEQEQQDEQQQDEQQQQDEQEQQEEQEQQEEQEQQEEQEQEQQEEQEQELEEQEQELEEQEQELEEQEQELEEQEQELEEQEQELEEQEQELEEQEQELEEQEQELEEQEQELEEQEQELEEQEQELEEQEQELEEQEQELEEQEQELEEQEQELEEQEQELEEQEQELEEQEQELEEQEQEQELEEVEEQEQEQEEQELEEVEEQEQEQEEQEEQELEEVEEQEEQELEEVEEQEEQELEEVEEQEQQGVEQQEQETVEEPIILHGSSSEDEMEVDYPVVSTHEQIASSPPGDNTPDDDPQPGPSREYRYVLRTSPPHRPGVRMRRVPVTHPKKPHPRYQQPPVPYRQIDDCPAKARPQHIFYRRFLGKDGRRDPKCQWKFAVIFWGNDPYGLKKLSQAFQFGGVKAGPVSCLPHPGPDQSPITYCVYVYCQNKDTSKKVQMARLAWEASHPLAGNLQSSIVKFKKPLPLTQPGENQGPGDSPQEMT", "experiment": "KSHV LANA DNA-binding disruption – biochemical, fluorescence polarization, cherry-picked samples, dose response (AID 504725);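 also: fluorescence polarization of a labeled DNA duplex reporting LANA DNA binding; potency is for inhibitors that block LANA binding to the DNA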", "set-up": "species or system Human gammaherpesvirus 8"}, "[25]": {"molecular_target": "T1, Insulin-degrading enzyme", "experiment": "cellular IDE activation of Abeta substrate cleavage – fluorescence polarization, HEK cells, dose response (AID 588439)", "type": "functional, cell-based"}, "[26]": {"molecular_target": "Beta-lactamase (Pseudomonas aeruginosa, UniProt Q79MP6)"}, "[27]": {"molecular_target": "T2, DNA dC->dU-editing enzyme APOBEC-3A (Homo sapiens, UniProt P31941)", "T2 sequence (P31941 whole entry)": "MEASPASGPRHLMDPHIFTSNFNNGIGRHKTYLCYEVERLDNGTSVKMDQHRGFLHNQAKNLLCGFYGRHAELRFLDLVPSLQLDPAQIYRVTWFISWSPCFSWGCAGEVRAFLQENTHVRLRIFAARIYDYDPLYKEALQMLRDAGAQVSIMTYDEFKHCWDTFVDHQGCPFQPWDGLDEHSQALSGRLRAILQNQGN", "experiment": "SAR analysis of small molecule inhibitors of APOBEC3A DNA Deaminase via a fluorescence-based single-stranded DNA deaminase assay.", "type": "functional", "details": "read-out: IC50_Mean"}, "[28]": {"molecular_target": "T3, DNA dC->dU-editing enzyme APOBEC-3G (Homo sapiens, UniProt Q9HC16)", "T3 sequence (Q9HC16 whole entry)": "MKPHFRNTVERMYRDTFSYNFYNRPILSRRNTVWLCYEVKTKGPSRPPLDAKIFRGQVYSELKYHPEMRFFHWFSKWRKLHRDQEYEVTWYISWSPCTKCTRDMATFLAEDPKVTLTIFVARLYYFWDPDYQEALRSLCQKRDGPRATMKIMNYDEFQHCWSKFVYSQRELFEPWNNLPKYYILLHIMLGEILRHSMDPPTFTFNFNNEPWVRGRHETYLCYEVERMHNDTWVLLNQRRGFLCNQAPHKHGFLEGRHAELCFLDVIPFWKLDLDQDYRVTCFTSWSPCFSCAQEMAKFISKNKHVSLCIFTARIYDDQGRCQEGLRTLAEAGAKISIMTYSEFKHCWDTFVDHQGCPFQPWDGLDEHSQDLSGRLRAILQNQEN", "experiment": "inhibition of APOBEC3G ssDNA deamination – biochemical, fluorescence, single-stranded DNA substrate, SAR follow-up (AID 602136)", "type": "functional", "details": "read-out: IC50_Mean"}, "[29]": {"molecular_target": "T3, DNA dC->dU-editing enzyme APOBEC-3G", "experiment": "SAR analysis of small molecule inhibitors of APOBEC3G DNA Deaminase via a fluorescence-based single-stranded DNA deaminase assay - Set 2.", "type": "functional", "details": "read-out: IC50_Mean"}, "[30]": {"molecular_target": "T2, DNA dC->dU-editing enzyme APOBEC-3A", "experiment": "A3A deaminase inhibition for selectivity – biochemical, dose response (AID 504722)", "type": "functional"}, "[31]": {"molecular_target": "T2, DNA dC->dU-editing enzyme APOBEC-3A", "experiment": "SAR analysis of small molecule inhibitors of APOBEC3A DNA Deaminase via a fluorescence-based single-stranded DNA deaminase assay - Set 2.", "type": "functional", "details": "read-out: IC50_Mean"}, "[32]": {"molecular_target": "T3, DNA dC->dU-editing enzyme APOBEC-3G", "experiment": "Dose Response confirmation of small molecule APOBEC3G DNA Deaminase Inhibitors via a fluorescence-based single-stranded DNA deaminase assay. [Related pubchem assays (depositor defined):AID493012, AID493028]", "type": "functional"}, "[33]": {"molecular_target": "Large T antigen (Simian virus 40, UniProt P03070)", "sequence (P03070 whole entry)": "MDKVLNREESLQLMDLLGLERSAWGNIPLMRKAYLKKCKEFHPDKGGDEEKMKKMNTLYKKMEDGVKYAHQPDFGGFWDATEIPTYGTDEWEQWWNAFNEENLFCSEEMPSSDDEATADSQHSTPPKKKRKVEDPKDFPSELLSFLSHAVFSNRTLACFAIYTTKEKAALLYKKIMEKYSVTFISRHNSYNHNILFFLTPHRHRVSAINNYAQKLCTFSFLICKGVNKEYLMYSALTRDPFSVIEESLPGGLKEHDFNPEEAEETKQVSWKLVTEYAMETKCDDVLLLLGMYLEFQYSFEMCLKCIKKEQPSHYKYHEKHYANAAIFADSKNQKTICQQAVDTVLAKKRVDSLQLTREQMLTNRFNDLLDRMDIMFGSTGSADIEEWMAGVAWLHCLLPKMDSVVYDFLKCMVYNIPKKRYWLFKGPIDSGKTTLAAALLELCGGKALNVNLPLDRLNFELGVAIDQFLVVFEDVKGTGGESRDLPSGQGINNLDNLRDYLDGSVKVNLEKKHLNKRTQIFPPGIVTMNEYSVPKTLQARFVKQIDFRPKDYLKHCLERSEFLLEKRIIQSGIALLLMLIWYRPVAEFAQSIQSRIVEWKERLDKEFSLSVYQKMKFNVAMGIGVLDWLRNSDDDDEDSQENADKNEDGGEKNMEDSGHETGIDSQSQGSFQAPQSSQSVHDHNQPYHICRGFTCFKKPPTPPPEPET", "type": "functional, Betapolyomavirus macacae"}, "[34]": {"molecular_target": "Cytochrome P450 2D6 (Homo sapiens, UniProt P10635)", "sequence (P10635 whole entry)": "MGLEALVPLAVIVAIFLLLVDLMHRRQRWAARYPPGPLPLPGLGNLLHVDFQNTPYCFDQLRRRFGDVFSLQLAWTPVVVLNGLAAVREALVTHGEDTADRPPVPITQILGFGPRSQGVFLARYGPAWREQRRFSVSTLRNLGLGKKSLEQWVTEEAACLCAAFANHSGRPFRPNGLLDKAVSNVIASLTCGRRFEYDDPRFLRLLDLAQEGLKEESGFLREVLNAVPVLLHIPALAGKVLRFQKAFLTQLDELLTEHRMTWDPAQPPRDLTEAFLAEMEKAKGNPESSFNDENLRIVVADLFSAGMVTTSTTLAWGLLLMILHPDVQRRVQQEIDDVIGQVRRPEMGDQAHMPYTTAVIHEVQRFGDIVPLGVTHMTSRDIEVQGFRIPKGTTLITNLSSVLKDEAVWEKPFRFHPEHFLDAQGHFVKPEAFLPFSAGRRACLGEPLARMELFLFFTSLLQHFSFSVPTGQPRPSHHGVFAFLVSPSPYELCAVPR"}, "[35]": {"molecular_target": "Cytochrome P450 2C9 (Homo sapiens, UniProt P11712)"}, "[36]": {"molecular_target": "DNA topoisomerase (Yersinia pestis, UniProt A0A2S9PM60)", "experiment": "Yersinia topoisomerase I cleavage product accumulation – biochemical, cherry-pick, dose response (AID 588525)"}, "[37]": {"experiment": "THP-1 cell cytotoxicity, dose response, cytotoxicity control, set 3 (AID 504852)", "type": "functional", "details": "Mycobacterium tuberculosis"}, "[38]": {"experiment": "THP-1 cell cytotoxicity, cytotoxicity control, set 6 (AID 602433)", "type": "functional", "details": "Mycobacterium tuberculosis"}, "[39]": {"experiment": "THP-1 cell cytotoxicity, cytotoxicity control, set 4 (AID 504911)", "type": "functional", "details": "Mycobacterium tuberculosis"}}, "note": "Calls of active or inactive are those of the source."}
{"smiles": "Cc1ccc(S(=O)(=O)N2CCOCC2)cc1NC(=O)COC(=O)CNC(=O)c1ccccc1", "values": [{"measurement": "EC50", "setting": "[1]", "value": "0.065 µM (active)"}, {"measurement": "EC50", "setting": "[2]", "value": "0.018 µM (active)"}]}
{"smiles": "Cc1c(O)ccc2c(CC(=O)N[C@@H](Cc3c[nH]c4ccccc34)C(=O)O)cc(=O)oc12", "values": [{"measurement": "AC50", "setting": "[3]", "value": "6.76 µM (active)"}]}
{"smiles": "CCOC(=O)c1[nH]c(C)c(C(=O)N2CCc3ccccc32)c1C", "values": [{"measurement": "EC50", "setting": "[4]", "value": "0.252 µM (active)"}, {"measurement": "EC50", "setting": "[5]", "value": "1.01 µM (active)"}, {"measurement": "EC50", "setting": "[6]", "value": "10.8 µM (active)"}, {"measurement": "EC50", "setting": "[7]", "value": "0.656 µM (active)"}, {"measurement": "EC50", "setting": "[8]", "value": "1.3 µM (active)"}, {"measurement": "EC50", "setting": "[9]", "value": "< 0.1 µM (active)"}, {"measurement": "EC50", "setting": "[10]", "value": "4.65 µM (active)"}, {"measurement": "EC50", "setting": "[11]", "value": "0.353 µM (inconclusive)"}, {"measurement": "EC50", "setting": "[12]", "value": "2.33 µM (active)"}, {"measurement": "EC50", "setting": "[13]", "value": "0.42 µM (inconclusive)"}, {"measurement": "EC50", "setting": "[14]", "value": "4.63 µM (inconclusive)"}, {"measurement": "EC50", "setting": "[15]", "value": "2.13 µM (active)"}, {"measurement": "EC50", "setting": "[16]", "value": "1.22 µM (active)"}, {"measurement": "EC50", "setting": "[17]", "value": "0.63 µM (inconclusive)"}, {"measurement": "EC50", "setting": "[18]", "value": "1.07 µM (active)"}, {"measurement": "EC50", "setting": "[19]", "value": "0.704 µM (inconclusive)"}]}
{"smiles": "CCOc1ccc(/C=C2\\CCCc3c2nc2ccccc2c3C(=O)O)cc1OC", "values": [{"measurement": "EC50", "setting": "[20]", "value": "> 54.7 µM (inactive)"}, {"measurement": "IC50", "setting": "[21]", "value": "> 89.2 µM (inactive)"}, {"measurement": "IC50", "setting": "[22]", "value": "10.9 µM (inactive)"}, {"measurement": "EC50", "setting": "[23]", "value": "5.38 µM (active)"}, {"measurement": "AC50", "setting": "[24]", "value": "0.908 µM (active)"}, {"measurement": "EC50", "setting": "[25]", "value": "> 54.7 µM (inactive)"}, {"measurement": "IC50", "setting": "[26]", "value": "53.1 µM (inactive)"}]}
{"smiles": "CCCCCn1c(=O)c2ccccc2n2c(S)nnc12", "values": [{"measurement": "IC50", "setting": "[27]", "value": "> 99 µM (inactive)"}, {"measurement": "IC50", "setting": "[28]", "value": "1.2 µM (active)"}, {"measurement": "IC50", "setting": "[29]", "value": "1.6 µM (active)"}, {"measurement": "IC50", "setting": "[30]", "value": "> 100 µM (inactive)"}, {"measurement": "IC50", "setting": "[31]", "value": "> 99 µM (inactive)"}, {"measurement": "IC50", "setting": "[32]", "value": "1.47 µM (active)"}, {"measurement": "IC50", "setting": "[33]", "value": "16.8 µM (active)"}]}
{"smiles": "Clc1cccc(CSc2nnc(-c3sccc3-n3cccc3)o2)c1", "values": [{"measurement": "AC50", "setting": "[34]", "value": "0.398 µM (inconclusive)"}, {"measurement": "AC50", "setting": "[35]", "value": "inconclusive"}, {"measurement": "AC50", "setting": "[36]", "value": "5.15 µM (active)"}]}
{"smiles": "CC(C)CCNC(=O)CSc1nc(O)c2ccccc2n1", "values": [{"measurement": "CC50", "setting": "[37]", "value": "> 100 µM (active)"}, {"measurement": "CC50", "setting": "[38]", "value": "> 100 µM (active)"}, {"measurement": "CC50", "setting": "[39]", "value": "> 100 µM (active)"}]}
